According to the supplement of paper PMC10883282:

Tests used:
Assay in all cases: relative viability vs DMSO control (72 h) (fraction); higher = more viable cells
SYO-1 = system: SYO-1
Summary of the method: (§1)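 Sarcoma cell lines were plated in 384 wells to reach 80–90% confluence, treated after 24 h with 2.5 µl of serially diluted compound and held 72 h at 37 °C, 5% CO2. Relative viability was taken as percent growth from ATPLite readings, averaged over up to triplicate wells. The values were rescaled so that 1 marks full and 0 marks none.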

HT1080 = system: HT1080
Summary of the method: as §1

KHOS-NP = system: KHOS-NP
Summary of the method: as §1

VA-ES-BJ = system: VA-ES-BJ
Summary of the method: as §1

SK-LMS-1 = system: SK-LMS-1
Summary of the method: as §1

A204 = system: A204
Summary of the method: as §1

HS729 = system: HS729
Summary of the method: as §1

SW684 = system: SW684
Summary of the method: as §1

SW872 = system: SW872
Summary of the method: as §1

SW1353 = system: SW1353
Summary of the method: as §1

MES-SA = system: MES-SA
Summary of the method: as §1

G401 = system: G401
Summary of the method: as §1

O=C1CCc2c(Oc3ccc4c(c3)[C@@H]3[C@H](O4)[C@H]3c3nc4cc(C(F)(F)F)ccc4[nH]3)ccnc2N1 [Lifirafenib]
Details	relative viability
A204, 0.00017 µM	1.1
A204, 0.00051 µM	1.12
A204, 0.00152 µM	1.12
A204, 0.00457 µM	1.104
A204, 0.01372 µM	1.1
A204, 0.04115 µM	1.11
A204, 0.1235 µM	1.1
A204, 0.3704 µM	0.781
A204, 1.111 µM	0.49
A204, 3.333 µM	0.38
A204, 10 µM	0.317
G401, 0.00017 µM	1.02
G401, 0.00051 µM	1.03
G401, 0.00152 µM	1.03
G401, 0.00457 µM	1.02
G401, 0.01372 µM	1.02
G401, 0.04115 µM	1.03
G401, 0.1235 µM	1.035
G401, 0.3704 µM	1.01
G401, 1.111 µM	0.957
G401, 3.333 µM	0.787
G401, 10 µM	0.625
HS729, 0.00017 µM	0.947
HS729, 0.00051 µM	0.921
HS729, 0.00152 µM	0.926
HS729, 0.00457 µM	0.937
HS729, 0.01372 µM	0.886
HS729, 0.04115 µM	0.907
HS729, 0.1235 µM	0.871
HS729, 0.3704 µM	0.852
HS729, 1.111 µM	0.8769
HS729, 3.333 µM	0.851
HS729, 10 µM	0.817
HT1080, 0.00017 µM	1.09
HT1080, 0.00051 µM	1.05
HT1080, 0.00152 µM	1.046
HT1080, 0.00457 µM	1.08
HT1080, 0.01372 µM	1.07
HT1080, 0.04115 µM	1.11
HT1080, 0.1235 µM	1.09
HT1080, 0.3704 µM	1.09
HT1080, 1.111 µM	1.04
HT1080, 3.333 µM	0.9439
HT1080, 10 µM	0.491
KHOS-NP, 0.00017 µM	1.07
KHOS-NP, 0.00051 µM	1.07
KHOS-NP, 0.00152 µM	1.07
KHOS-NP, 0.00457 µM	1.07
KHOS-NP, 0.01372 µM	1.064
KHOS-NP, 0.04115 µM	1.05
KHOS-NP, 0.1235 µM	1.06
KHOS-NP, 0.3704 µM	1.07
KHOS-NP, 1.111 µM	0.8425
KHOS-NP, 3.333 µM	0.433
KHOS-NP, 10 µM	0.321
MES-SA, 0.00017 µM	0.948
MES-SA, 0.00051 µM	0.952
MES-SA, 0.00152 µM	0.954
MES-SA, 0.00457 µM	0.955
MES-SA, 0.01372 µM	0.961
MES-SA, 0.04115 µM	0.974
MES-SA, 0.1235 µM	0.985
MES-SA, 0.3704 µM	0.992
MES-SA, 1.111 µM	0.956
MES-SA, 3.333 µM	0.792
MES-SA, 10 µM	0.493
SK-LMS-1, 0.00017 µM	1.04
SK-LMS-1, 0.00051 µM	1.06
SK-LMS-1, 0.00152 µM	1.09
SK-LMS-1, 0.00457 µM	1.08
SK-LMS-1, 0.01372 µM	1.1
SK-LMS-1, 0.04115 µM	1.11
SK-LMS-1, 0.1235 µM	1.14
SK-LMS-1, 0.3704 µM	1.1
SK-LMS-1, 1.111 µM	0.876
SK-LMS-1, 3.333 µM	0.6129
SK-LMS-1, 10 µM	0.438
SW684, 0.00017 µM	1.17
SW684, 0.00051 µM	1.2
SW684, 0.00152 µM	1.18
SW684, 0.00457 µM	1.16
SW684, 0.01372 µM	1.15
SW684, 0.04115 µM	1.15
SW684, 0.1235 µM	1.154
SW684, 0.3704 µM	1.22
SW684, 1.111 µM	1.32
SW684, 3.333 µM	1.3
SW684, 10 µM	0.936
SW872, 0.00017 µM	0.974
SW872, 0.00051 µM	0.998
SW872, 0.00152 µM	1.01
SW872, 0.00457 µM	1.03
SW872, 0.01372 µM	1.03
SW872, 0.04115 µM	0.98
SW872, 0.1235 µM	0.941
SW872, 0.3704 µM	0.735
SW872, 1.111 µM	0.644
SW872, 3.333 µM	0.644
SW872, 10 µM	0.59
SW1353, 0.00017 µM	0.989
SW1353, 0.00051 µM	0.95
SW1353, 0.00152 µM	0.989
SW1353, 0.00457 µM	1.01
SW1353, 0.01372 µM	1.06
SW1353, 0.04115 µM	1.06
SW1353, 0.1235 µM	1.06
SW1353, 0.3704 µM	1.08
SW1353, 1.111 µM	1.03
SW1353, 3.333 µM	0.861
SW1353, 10 µM	0.545
SYO-1, 0.00017 µM	0.947
SYO-1, 0.00051 µM	0.941
SYO-1, 0.00152 µM	0.9369
SYO-1, 0.00457 µM	0.947
SYO-1, 0.01372 µM	0.937
SYO-1, 0.04115 µM	0.91
SYO-1, 0.1235 µM	0.905
SYO-1, 0.3704 µM	0.823
SYO-1, 1.111 µM	0.666
SYO-1, 3.333 µM	0.555
SYO-1, 10 µM	0.437
VA-ES-BJ, 0.00017 µM	1.037
VA-ES-BJ, 0.00051 µM	1.039
VA-ES-BJ, 0.00152 µM	1.046
VA-ES-BJ, 0.00457 µM	1.03
VA-ES-BJ, 0.01372 µM	1.03
VA-ES-BJ, 0.04115 µM	1.04
VA-ES-BJ, 0.1235 µM	1.09
VA-ES-BJ, 0.3704 µM	1.108
VA-ES-BJ, 1.111 µM	1.11
VA-ES-BJ, 3.333 µM	1.09
VA-ES-BJ, 10 µM	0.798
